Data: patent US9290544B2, “Methods for making and using molecular switches involving circular permutation” (priority 2004, dated 2016)

How the values were obtained:
[1] = 96-well colorimetric nitrocefin hydrolysis screen of lysates with or without 5 mM maltose; assay type: biochemical; details: 50 μM nitrocefin
Experimental: The naïve library was plated on LB agar plates supplemented with 200 μg/ml ampicillin and 50 mM maltose and incubated at 37° C. overnight. From these plates, 1056 colonies were picked to inoculate 1 ml LB media (supplemented with 50 μg/ml chloramphenicol and 1 mM IPTG) in 96-well format. After incubation overnight at 37′C, each culture was lysed using 0.1 ml Popculture reagent, 40 units of rLysozyme, and 2.5 units of benzonase nuclease. Lysates were centrifuged to pellet the insoluble material and the soluble fractions were assayed in 96-well format for nitrocefin hydrolysis in the presence or absence of 5 mM maltose using a colorimetric assay for nitrocefin hydrolysis (Posey et al. 2002). The assays were carried out at room temperature using the Spectramax-384 Plus microplate reader (Molecular Devices) in the presence of 100 mM sodium phosphate buffer and 50 μM nitrocefin in a 200 μl reaction volume.

[2] = Hydrolysis of carbenicillin by RG-200-13 with and without 5 mM maltose; assay type: biochemical; details: substrate carbenicillin 1 mM; pH 7.0, 22° C.
Experimental: (§1) A 6×His tag was added to the C-terminus of RG-200-13 (also termed “RG13” in Examples below) and the fusion was purified as previously described (Guntas and Ostermeier 2004). The protein was purified to approximately 60% purity. The kinetic constants and binding constants were determined from Eadie-Hofstee plots and Eadie plot equivalents, respectively, using a spectrophotometric assay for nitrocefin hydrolysis. Initial rates for nitrocefin hydrolysis were determined from absorbance at 486 nm monitored as a function of time. The enzyme was incubated at the assay temperature in the absence or presence of saccharide for four minutes prior to performing the assay. All assays contained 100 mM sodium phosphate buffer, pH 7.0. The dissociation constant for maltose was determined using change in velocity of nitrocefin hydrolysis as a signal.
(§2) Maltose binding had the largest effect on cephalothin (of the substrates tested), with the velocity of cephalothin hydrolysis being 32-fold higher in the presence of maltose than in its absence.

[3] = Dissociation constant for maltose using change in velocity of nitrocefin hydrolysis as signal; details: 22° C.; read-out: Kd for maltose binding
Experimental: as §1

[4] = Hydrolysis of cephalothin by RG-200-13 with and without 5 mM maltose; assay type: biochemical; details: substrate cephalothin 250 μM; pH 7.0, 22° C.
Experimental: as §1, §2

[5] = Nitrocefin hydrolysis in soluble fraction of cell lysates with and without 5 mM maltose (screen and confirmation of positives); assay type: biochemical; details: 50 μM nitrocefin
Experimental: Next, 50 μl of PopCulture (Novagen) and 2.5 unit of benzonase nuclease was added to each well and incubated for 15 minutes at room temperature to lyse the cells. The cells debris and any unlysed cells were pelleted by centrifugation and supernatant was recovered. In 96-well format, 60 μl of lysate was assayed for hydrolysis of nitrocefin (50 μM) by monitoring the increase in absorbance at 490 nm in 100 mM sodium phosphate buffer, pH 7.0, both with and without 5 mM maltose. Any lysate in which there was a difference in rate of more than 2-fold (between with and without maltose) was selected for retesting and further investigation.
Library members identified as having more than 200% switching activity in the 96-well plate screen were grown 24-48 hours in 100 ml LB media in 500 ml shaker flasks at 22° C. without IPTG. The cells were pelleted and resuspended in 8 ml assay buffer (100 mM sodium phosphate buffer, pH 7.0) and lysed by French press. The soluble fraction of this lysate was assayed for hydrolysis of nitrocefin (50 μM) at 22° C. as previously described (Guntas and Ostermeier 2004) both with and without 5 mM maltose. Initial rates were determined from absorbance at 486 nm monitored as a function of time. The enzyme was incubated at the assay temperature in the absence or presence of 5 mM maltose for four minutes prior to performing the assay. All assays contained 100 mM sodium phosphate buffer, pH 7.0. Library members for which there was a difference in the initial rate of more than about 2-fold were sequenced (Table 4). Switches RG-5-169 and RG-200-13 were also assayed in the presence of 5 mM sucrose or 5 mM glucose.

E. coli cells = experiment: MIC of ampicillin for E. coli cells expressing RG13 from pDIMC8 (Table 11); assay type: cell-based
Description: The signal recognition domain can be altered by rational design or directed evolution to bind to new effectors. With respect to testing mutations predicted by rational design or screening or selecting libraries created for a directed evolution approach, existing switches are used to efficiently test or select for binding to new ligands in vivo. For example, E. coli cells expressing the MBP-BLA switch RG13 from the lac promoter on pDIMC8 have a higher MIC for ampicillin (Amp) in the presence of maltose than in their absence (Table 11) because the BLA enzymatic activity of RG13 (hydrolysis of ampicillin) is higher in the presence of maltose. Thus, for example, mutations created in RG13 (either by rational design or by a stochastic or semi-stochastic method) such that mutant forms of RG13 bind another ligand X (and behave as a switch) can be screened or selected for in vivo. E. coli producing such a new switch will grow at 200 μg/ml Amp in the presence of X but not in the absence of X.

[6] = Hydrolysis of oxacillin by RG-200-13 with and without 5 mM maltose; assay type: biochemical; details: substrate oxacillin 1 mM; pH 7.0, 22° C.
Experimental: as §1, §2

DH5α-E cells = experiment: In vivo characterization: MIC of ampicillin for DH5α-E cells expressing the protein; assay type: cell-based, E. coli; details: for Minimum Inhibitory Concentration of Ampicillin: LB plates, 37° C., 20 hours
Experimental: Overnight inoculums of DH5α-E cells expressing RG13, BLA or BLA(W208G) were diluted into LB media and plated on LB plates, either in the absence or presence of 50 μM maltose, in the presence of increasing amounts of ampicillin. Ampicillin was present in the plates at the following concentrations: 0, 2, 4, 8, 16, 32, 64, 128, 256, 512, and 2000 μg/ml. Cells were plated at approximately 1000 CFU (no antibiotic) per plate. The plates were incubated at 37° C. for 20 hours. The minimum inhibitory concentration (MIC) was defined as the lowest ampicillin concentration at which no colonies were present, or that at which the number of colonies present was <1% of the number of colonies at the next lowest level of ampicillin.

[7] = Affinity of switches for maltose (method not given); assay type: binding
Description: Exemplary switches were created by the method having different affinities for maltose.

With “RG13: MBP-BLA fusion switch MBP[1-316]-BLA[227-286]-GSGGG-BLA[24-226]-S-MBP[319-370]; SEQ ID NO: 61” the “Increase of initial velocity of nitrocefin hydrolysis in the presence of maltose” value [1] was 17 fold, the “Approximate fold increase in velocity of carbenicillin hydrolysis in the presence of 5 mM maltose” value [2] was about 4 fold and the Kd [3] was about 5 µM. For the same substance, the “Fold increase in velocity of cephalothin hydrolysis with 5 mM maltose” value [4] was 32 fold, the “Effect of 5 mM sucrose or 5 mM glucose on velocity of nitrocefin hydrolysis” value ([5]; 22° C., lysate soluble fraction) was “Neither sugar affected the velocity of nitrocefin hydrolysis” and the “Switching effect: percent change in velocity of nitrocefin hydrolysis in the presence of 5 mM maltose” value ([5]; 5 mM maltose, 100 mM sodium phosphate buffer, pH 7.0) was “+1650%”. For the same substance, the MIC ampicillin (E. coli cells; supplement to plate: 50 μM maltose) was 400 µg/mL, the MIC ampicillin (E. coli cells; supplement to plate: 5 mM maltose) was 400 µg/mL and the MIC ampicillin (E. coli cells; supplement to plate: none, LB plates, 37° C.) was 100 µg/mL. The “Approximate fold increase in velocity of oxacillin hydrolysis in the presence of 5 mM maltose” value [6] was about 5 fold, the “Effect of the same concentration (50 μM) of sucrose or glucose on the MIC” value (DH5α-E cells) was “did not affect the MIC” and the “Increase of MIC for ampicillin in the presence of 50 μM maltose” value (DH5α-E cells) was “four-fold”. For the same substance, the “Minimum Inhibitory Concentration of Ampicillin” value (DH5α-E cells; 50 μM maltose) was 512 µg/mL, the “Minimum Inhibitory Concentration of Ampicillin” value (DH5α-E cells; No maltose) was 128 µg/mL and the Kd [7] was 1 to 5 µM.
